Measurements taken from US20260365682A1, “MODULATORS OF TNF-ALPHA ACTIVITY” (Forward Therapeutics, Inc., priority 2022, published 2026).

What follows are molecules tested against T1, TNF-α (Homo sapiens, UniProt P01375) (assay: TNF-α Induced HEK Blue Cellular Assay (secreted alkaline phosphatase expression, QUANTI-Blue)). Conditions: HEK Blue TNFα reporter cells; TNF-α 100 μg/ml; 24 hrs at 37° C.; inhibition of secreted alkaline phosphatase; read-out: IC50 value.
T1 construct: purchased R&D 210-TA-020/CF
Type: cell-based
Method in brief: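 HEK Blue TNFα reporter cells (10,000/well) in DMEM with 10% FBS received compound ([…] to 0.5 nM final) and TNF-α at […] final for 24 h at 37° C. Secreted alkaline phosphatase read with QUANTI-Blue at 620 nm. IC50 came from a 4-parameter logistic fit after normalising to unstimulated and stimulated DMSO controls.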

T1 sequence (P01375 77-233 limits assumed): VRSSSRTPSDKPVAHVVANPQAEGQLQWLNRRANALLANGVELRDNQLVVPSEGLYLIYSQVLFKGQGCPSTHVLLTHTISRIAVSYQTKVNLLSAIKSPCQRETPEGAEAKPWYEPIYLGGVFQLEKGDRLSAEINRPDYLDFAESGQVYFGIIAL

Row | SMILES | IC50 [nM]
1 | [2H]C([2H])([2H])N1C(=O)c2cccc(OC(F)F)c2[C@H]2C[C@@H]1c1nc3ccc(C#CCCC(F)F)cc3n12 [Example 132, (7R,14R)-1-(difluoromethoxy)-11-(5,5-difluoropent-1-yn-1-yl)-6-(methyl-d3)-6,7-dihydro-7,14-methanobenzo[f]benzo[4,5]imidazo[1,2-a][1,4]diazocin-5(14H)-one] | < 100
2 | [2H]C([2H])([2H])N1C(=O)c2cccc(OC(F)F)c2[C@H]2C[C@@H]1c1nc3ccc(C#CC4CCCN(C)C4)cc3n12 (stereo partly drawn) [Example 63, (7R,14R)-1-(difluoromethoxy)-6-(methyl-d3)-11-((1-methylpiperidin-3-yl)ethynyl)-6,7-dihydro-7,14-methanobenzo[f]benzo[4,5]imidazo[1,2-a][1,4]diazocin-5(14H)-one] | < 100
3 | [2H]C([2H])([2H])N1C(=O)c2cccc(OC(F)F)c2[C@H]2C[C@@H]1c1nc3ccc(C#CC4CC(F)(F)C4)cc3n12 [Example 150, (7R,14R)-11-((3,3-difluorocyclobutyl)ethynyl)-1-(difluoromethoxy)-6-(methyl-d3)-6,7-dihydro-7,14-methanobenzo[f]benzo[4,5]imidazo[1,2-a][1,4]diazocin-5(14H)-one] | < 100
4 | [2H]C([2H])([2H])N1C(=O)c2cccc(OC(F)F)c2[C@H]2C[C@@H]1c1nc3ccc(C#CCCl)cc3n12 [Example 172, (7R,14R)-11-(3-chloroprop-1-yn-1-yl)-1-(difluoromethoxy)-6-(methyl-d3)-6,7-dihydro-7,14-methanobenzo[f]benzo[4,5]imidazo[1,2-a][1,4]diazocin-5(14H)-one] | < 100
5 | [2H]C([2H])([2H])N1C(=O)c2cccc(OC(F)F)c2[C@H]2C[C@@H]1c1nc3ccc(C#CC4CCCN(C5CC5)C4)cc3n12 (stereo partly drawn) [Example 218, (7R,14R)-11-((1-cyclopropylpiperidin-3-yl)ethynyl)-1-(difluoromethoxy)-6-(methyl-d3)-6,7-dihydro-7,14-methanobenzo[f]benzo[4,5]imidazo[1,2-a][1,4]diazocin-5(14H)-one] | 10000 to 30000
6 | [2H]C([2H])([2H])N1C(=O)c2cccc(OC(F)F)c2[C@H]2C[C@@H]1c1nc3ccc(C#CC(C)CN4CC(F)C4)cc3n12 (stereo partly drawn) [Example 248, (7R,14R)-1-(difluoromethoxy)-11-(4-(3-fluoroazetidin-1-yl)-3-methylbut-1-yn-1-yl)-6-(methyl-d3)-6,7-dihydro-7,14-methanobenzo[f]benzo[4,5]imidazo[1,2-a][1,4]diazocin-5(14H)-one] | 100 to 1000
7 | [2H]C([2H])([2H])N1C(=O)c2cccc(OC(F)F)c2[C@H]2C[C@@H]1c1nc3ccc(C#CC4(O)CCOCC4)cc3n12 [Example 97, (7R,14R)-1-(difluoromethoxy)-11-((4-hydroxytetrahydro-2H-pyran-4-yl)ethynyl)-6-(methyl-d3)-6,7-dihydro-7,14-methanobenzo[f]benzo[4,5]imidazo[1,2-a][1,4]diazocin-5(14H)-one] | < 100
8 | [2H]C([2H])([2H])N1C(=O)c2cccc(OC(F)F)c2[C@H]2C[C@@H]1c1nc3ccc(C#CCCCC)cc3n12 [Example 91, (7R,14R)-1-(difluoromethoxy)-11-(hex-1-yn-1-yl)-6-(methyl-d3)-6,7-dihydro-7,14-methanobenzo[f]benzo[4,5]imidazo[1,2-a][1,4]diazocin-5(14H)-one] | < 100
9 | [2H]C([2H])([2H])N1C(=O)c2cccc(OC(F)F)c2[C@H]2C[C@@H]1c1nc3ccc(CCCCO)cc3n12 [Example 99, (7R,14R)-1-(difluoromethoxy)-11-(4-hydroxybutyl)-6-(methyl-d3)-6,7-dihydro-7,14-methanobenzo[f]benzo[4,5]imidazo[1,2-a][1,4]diazocin-5(14H)-one] | < 100
10 | [2H]C([2H])([2H])N1C(=O)c2cccc(OC(F)F)c2[C@H]2C[C@@H]1c1nc3ccc(C#CC4CCN(S(C)(=O)=O)CC4)cc3n12 [Example 185, (7R,14R)-1-(difluoromethoxy)-6-(methyl-d3)-11-((1-(methylsulfonyl)piperidin-4-yl)ethynyl)-6,7-dihydro-7,14-methanobenzo[f]benzo[4,5]imidazo[1,2-a][1,4]diazocin-5(14H)-one] | < 100
